# Experimental data taken from patent US9682995B2, “Amino-substituted isothiazoles” (BAYER PHARMA AKTIENGESELLSCHAFT, priority 2013, dated 2017).
# How the values were obtained:
# Experiment in all cases: Kinase Profiling (KINOMEscan)
# Type in all cases: binding
# [1] = biological target: 456 kinases (of these 395 non-mutant kinases) (Homo sapiens, UniProt Q7L7X3); conditions: TAOK1; 10 μM
# [2] = biological target: 456 kinases (of these 395 non-mutant kinases) (Homo sapiens, UniProt Q13882); conditions: BRK; 10 μM
# [3] = biological target: 456 kinases (of these 395 non-mutant kinases) (Homo sapiens, UniProt Q56UN5); conditions: YSK4; 10 μM
# [4] = biological target: 456 kinases (of these 395 non-mutant kinases) (Homo sapiens, UniProt P31749); conditions: AKT1; 10 μM
# [5] = biological target: 456 kinases (of these 395 non-mutant kinases) (Homo sapiens, UniProt P78356); conditions: PIP5K2B; 10 μM
# [6] = biological target: 456 kinases (of these 395 non-mutant kinases) (Homo sapiens, UniProt P37173); conditions: TGFBR2; 10 μM
# [7] = biological target: 456 kinases (of these 395 non-mutant kinases) (Homo sapiens, UniProt Q9Y2H1); conditions: NDR2; 10 μM
# [8] = biological target: 456 kinases (of these 395 non-mutant kinases) (Homo sapiens, UniProt Q59H18); conditions: TNNI3K; 10 μM
# [9] = biological target: 456 kinases (of these 395 non-mutant kinases) (Homo sapiens, UniProt Q13554); conditions: CAMK2B; 10 μM
# [10] = biological target: 456 kinases (of these 395 non-mutant kinases) (Homo sapiens, UniProt Q99683); conditions: ASK1; 10 μM
# [11] = biological target: 456 kinases (of these 395 non-mutant kinases) (Homo sapiens, UniProt Q9BQI3); conditions: EIF2AK1; 10 μM
# [12] = biological target: 456 kinases (of these 395 non-mutant kinases) (Homo sapiens, UniProt Q9UKI8); conditions: TLK1; 10 μM
# [13] = biological target: 456 kinases (of these 395 non-mutant kinases) (Homo sapiens, UniProt Q16513); conditions: PKN2; 10 μM
# [14] = biological target: 456 kinases (of these 395 non-mutant kinases) (Homo sapiens, UniProt P22694); conditions: PKAC-beta; 10 μM
# [15] = biological target: 456 kinases (of these 395 non-mutant kinases) (Homo sapiens, UniProt P27448); conditions: MARK3; 10 μM
# [16] = biological target: 456 kinases (of these 395 non-mutant kinases) (Homo sapiens, UniProt Q15831); conditions: LKB1; 10 μM
# [17] = biological target: 456 kinases (of these 395 non-mutant kinases) (Homo sapiens, UniProt Q8TF76); conditions: HASPIN; 10 μM
# [18] = biological target: 456 kinases (of these 395 non-mutant kinases) (Homo sapiens, UniProt O00329); conditions: PIK3CD; 10 μM
# [19] = biological target: 456 kinases (of these 395 non-mutant kinases) (Homo sapiens, UniProt Q9Y6E0); conditions: MST3; 10 μM
# [20] = biological target: 456 kinases (of these 395 non-mutant kinases) (Homo sapiens, UniProt Q9Y616); conditions: IRAK3; 10 μM
# [21] = biological target: 456 kinases (of these 395 non-mutant kinases) (Homo sapiens, UniProt Q6ZN16); conditions: MAP3K15; 10 μM
# [22] = biological target: 456 kinases (of these 395 non-mutant kinases) (Homo sapiens, UniProt Q15349); conditions: 10 μM
# [23] = biological target: 456 kinases (of these 395 non-mutant kinases) (Homo sapiens, UniProt P36897); conditions: TGFBR1; 10 μM
# [24] = biological target: 456 kinases (of these 395 non-mutant kinases) (Homo sapiens, UniProt Q9UKE5); conditions: TNIK; 10 μM
# [25] = biological target: 456 kinases (of these 395 non-mutant kinases) (Homo sapiens, UniProt P00533, L861Q); conditions: EGFR(L861Q); 10 μM
# [26] = biological target: 456 kinases (of these 395 non-mutant kinases) (Homo sapiens, UniProt Q9BZL6); conditions: PRKD2; 10 μM
# [27] = biological target: 456 kinases (of these 395 non-mutant kinases) (Homo sapiens, UniProt P57078); conditions: RIPK4; 10 μM
# [28] = biological target: 456 kinases (of these 395 non-mutant kinases) (Homo sapiens, UniProt P10721, D816H); conditions: KIT(D816H); 10 μM
# [29] = biological target: 456 kinases (of these 395 non-mutant kinases) (Homo sapiens, UniProt Q12852); conditions: DLK; 10 μM
# [30] = biological target: 456 kinases (of these 395 non-mutant kinases) (Homo sapiens, UniProt O95382); conditions: ASK2; 10 μM
# [31] = biological target: 456 kinases (of these 395 non-mutant kinases) (Homo sapiens, UniProt O15146); conditions: MUSK; 10 μM
# [32] = biological target: 456 kinases (of these 395 non-mutant kinases) (Homo sapiens, UniProt Q92772); conditions: CDKL2; 10 μM
# 456 kinases (of these 395 non-mutant kinases) (Homo sapiens, UniProt O15146), sequence (O15146 24-869 limits assumed, change not shown): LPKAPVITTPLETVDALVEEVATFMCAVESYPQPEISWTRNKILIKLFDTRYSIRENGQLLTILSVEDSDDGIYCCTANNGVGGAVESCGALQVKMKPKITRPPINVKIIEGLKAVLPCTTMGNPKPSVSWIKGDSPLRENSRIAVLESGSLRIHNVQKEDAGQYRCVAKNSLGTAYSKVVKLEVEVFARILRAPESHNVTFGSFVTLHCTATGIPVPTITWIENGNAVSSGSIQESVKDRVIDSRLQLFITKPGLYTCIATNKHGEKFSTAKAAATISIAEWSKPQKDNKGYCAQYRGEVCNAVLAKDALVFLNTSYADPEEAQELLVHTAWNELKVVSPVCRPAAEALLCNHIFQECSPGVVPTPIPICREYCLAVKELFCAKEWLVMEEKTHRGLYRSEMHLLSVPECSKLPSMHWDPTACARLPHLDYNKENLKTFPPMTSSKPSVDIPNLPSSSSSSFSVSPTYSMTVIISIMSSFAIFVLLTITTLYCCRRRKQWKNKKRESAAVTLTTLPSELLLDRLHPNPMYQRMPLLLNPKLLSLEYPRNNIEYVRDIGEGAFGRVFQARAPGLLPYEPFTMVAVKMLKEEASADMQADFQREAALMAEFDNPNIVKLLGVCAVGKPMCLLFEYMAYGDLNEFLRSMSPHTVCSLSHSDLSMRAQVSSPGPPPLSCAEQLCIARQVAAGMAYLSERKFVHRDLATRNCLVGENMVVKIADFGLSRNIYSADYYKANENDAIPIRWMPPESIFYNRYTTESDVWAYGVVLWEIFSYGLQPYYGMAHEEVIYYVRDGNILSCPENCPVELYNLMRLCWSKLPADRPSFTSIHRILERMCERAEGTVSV
# 456 kinases (of these 395 non-mutant kinases) (Homo sapiens, UniProt P37173), sequence (P37173 23-567 limits assumed, change not shown): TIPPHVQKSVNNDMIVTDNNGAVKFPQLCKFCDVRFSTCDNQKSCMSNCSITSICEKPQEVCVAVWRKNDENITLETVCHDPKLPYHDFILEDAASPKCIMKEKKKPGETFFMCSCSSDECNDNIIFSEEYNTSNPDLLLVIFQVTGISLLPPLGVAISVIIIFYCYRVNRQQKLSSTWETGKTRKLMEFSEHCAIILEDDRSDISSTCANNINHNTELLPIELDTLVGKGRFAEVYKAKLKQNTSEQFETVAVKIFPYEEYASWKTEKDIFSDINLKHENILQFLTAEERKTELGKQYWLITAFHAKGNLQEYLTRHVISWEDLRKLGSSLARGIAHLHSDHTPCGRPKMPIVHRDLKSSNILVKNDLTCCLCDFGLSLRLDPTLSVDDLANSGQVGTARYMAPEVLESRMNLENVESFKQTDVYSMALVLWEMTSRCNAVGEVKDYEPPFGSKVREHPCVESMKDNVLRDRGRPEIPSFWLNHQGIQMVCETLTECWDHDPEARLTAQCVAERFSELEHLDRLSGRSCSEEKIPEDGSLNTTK
# 456 kinases (of these 395 non-mutant kinases) (Homo sapiens, UniProt Q9Y2H1), sequence (Q9Y2H1 2-464 limits assumed, change not shown): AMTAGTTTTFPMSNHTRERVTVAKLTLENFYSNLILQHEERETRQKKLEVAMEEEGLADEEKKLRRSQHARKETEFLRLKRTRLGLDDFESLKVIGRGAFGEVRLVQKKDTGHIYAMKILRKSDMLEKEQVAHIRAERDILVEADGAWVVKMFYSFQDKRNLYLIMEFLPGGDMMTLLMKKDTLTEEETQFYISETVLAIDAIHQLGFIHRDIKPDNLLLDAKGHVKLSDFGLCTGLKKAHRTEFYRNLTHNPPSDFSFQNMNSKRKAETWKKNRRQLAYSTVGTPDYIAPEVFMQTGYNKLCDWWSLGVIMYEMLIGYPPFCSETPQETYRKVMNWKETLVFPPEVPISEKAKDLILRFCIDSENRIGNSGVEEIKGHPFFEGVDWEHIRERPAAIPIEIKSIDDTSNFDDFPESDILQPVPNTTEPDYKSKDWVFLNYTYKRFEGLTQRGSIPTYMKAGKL
# 456 kinases (of these 395 non-mutant kinases) (Homo sapiens, UniProt P78356), sequence (P78356 2-416 limits assumed, change not shown): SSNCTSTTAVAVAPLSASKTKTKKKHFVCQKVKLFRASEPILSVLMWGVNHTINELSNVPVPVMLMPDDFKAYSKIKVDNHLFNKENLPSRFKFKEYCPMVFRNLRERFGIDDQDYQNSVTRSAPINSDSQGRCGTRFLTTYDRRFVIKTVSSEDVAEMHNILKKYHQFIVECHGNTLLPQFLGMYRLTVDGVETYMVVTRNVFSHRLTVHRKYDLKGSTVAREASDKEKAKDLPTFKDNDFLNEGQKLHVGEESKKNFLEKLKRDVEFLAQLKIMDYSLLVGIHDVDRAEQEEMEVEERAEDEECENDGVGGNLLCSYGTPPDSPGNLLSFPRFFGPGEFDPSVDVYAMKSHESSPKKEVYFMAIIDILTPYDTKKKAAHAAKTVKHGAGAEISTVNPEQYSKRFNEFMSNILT
# 456 kinases (of these 395 non-mutant kinases) (Homo sapiens, UniProt P36897), sequence (P36897 34-503 limits assumed, change not shown): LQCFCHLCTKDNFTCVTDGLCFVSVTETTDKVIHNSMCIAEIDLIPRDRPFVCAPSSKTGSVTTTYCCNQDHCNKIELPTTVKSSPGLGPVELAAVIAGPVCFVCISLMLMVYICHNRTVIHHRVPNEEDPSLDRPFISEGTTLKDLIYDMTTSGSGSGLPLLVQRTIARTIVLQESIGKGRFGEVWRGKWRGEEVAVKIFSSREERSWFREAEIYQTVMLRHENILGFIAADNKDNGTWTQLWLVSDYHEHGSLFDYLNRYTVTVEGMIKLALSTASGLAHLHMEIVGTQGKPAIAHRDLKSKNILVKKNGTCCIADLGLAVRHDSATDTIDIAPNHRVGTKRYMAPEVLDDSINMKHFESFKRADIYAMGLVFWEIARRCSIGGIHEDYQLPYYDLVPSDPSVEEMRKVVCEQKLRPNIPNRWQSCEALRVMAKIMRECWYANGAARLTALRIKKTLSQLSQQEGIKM
# 456 kinases (of these 395 non-mutant kinases) (Homo sapiens, UniProt P10721, D816H), sequence (P10721 26-976 D816H limits assumed): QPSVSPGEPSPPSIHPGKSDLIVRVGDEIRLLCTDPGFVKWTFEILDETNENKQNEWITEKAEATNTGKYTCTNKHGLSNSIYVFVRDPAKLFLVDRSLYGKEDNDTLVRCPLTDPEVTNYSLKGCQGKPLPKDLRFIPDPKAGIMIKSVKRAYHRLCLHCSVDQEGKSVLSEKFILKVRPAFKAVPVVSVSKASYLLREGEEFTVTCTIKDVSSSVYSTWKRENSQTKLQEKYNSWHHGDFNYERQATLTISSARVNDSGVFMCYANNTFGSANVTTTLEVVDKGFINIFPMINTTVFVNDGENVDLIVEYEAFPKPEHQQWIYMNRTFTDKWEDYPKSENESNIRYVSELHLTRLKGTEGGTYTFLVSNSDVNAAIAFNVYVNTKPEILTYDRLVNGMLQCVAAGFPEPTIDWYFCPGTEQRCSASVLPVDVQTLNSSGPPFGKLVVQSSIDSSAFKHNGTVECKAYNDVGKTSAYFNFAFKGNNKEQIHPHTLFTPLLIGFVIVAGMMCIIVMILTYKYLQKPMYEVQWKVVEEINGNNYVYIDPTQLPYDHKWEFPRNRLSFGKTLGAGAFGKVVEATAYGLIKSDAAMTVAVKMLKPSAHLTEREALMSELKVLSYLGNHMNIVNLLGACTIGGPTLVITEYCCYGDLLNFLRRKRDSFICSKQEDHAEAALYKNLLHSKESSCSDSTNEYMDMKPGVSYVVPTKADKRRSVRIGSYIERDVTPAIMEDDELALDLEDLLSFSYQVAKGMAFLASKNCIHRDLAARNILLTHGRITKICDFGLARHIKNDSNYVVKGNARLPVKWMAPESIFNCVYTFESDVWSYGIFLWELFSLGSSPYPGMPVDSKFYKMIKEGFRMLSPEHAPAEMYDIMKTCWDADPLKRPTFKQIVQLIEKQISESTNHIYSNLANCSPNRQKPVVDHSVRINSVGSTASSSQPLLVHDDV
smiles,measurement,setting,value
"CCc1ccccc1NC(=O)c1c(C)nsc1Nc1cnc2cc(F)ccc2n1 [Example 20, N-(2-Ethylphenyl)-5-[(6-fluoroquinoxalin-2-yl)amino]-3-methyl-1,2-thiazole-4-carboxamide]",% Ctrl @ 10 μM,[1],100 % Ctrl
same,% Ctrl @ 10 μM,[2],55 % Ctrl
same,% Ctrl @ 10 μM,[3],100 % Ctrl
same,% Ctrl @ 10 μM,[4],100 % Ctrl
same,% Ctrl @ 10 μM,[5],86 % Ctrl
same,% Ctrl @ 10 μM,[6],100 % Ctrl
same,% Ctrl @ 10 μM,[7],75 % Ctrl
same,% Ctrl @ 10 μM,[8],85 % Ctrl
same,% Ctrl @ 10 μM,[9],82 % Ctrl
same,% Ctrl @ 10 μM,[10],90 % Ctrl
same,% Ctrl @ 10 μM,[11],100 % Ctrl
same,% Ctrl @ 10 μM,[12],84 % Ctrl
same,% Ctrl @ 10 μM,[13],100 % Ctrl
same,% Ctrl @ 10 μM,[14],82 % Ctrl
same,% Ctrl @ 10 μM,[15],93 % Ctrl
same,% Ctrl @ 10 μM,[16],100 % Ctrl
same,% Ctrl @ 10 μM,[17],100 % Ctrl
same,% Ctrl @ 10 μM,[18],100 % Ctrl
same,% Ctrl @ 10 μM,[19],75 % Ctrl
same,% Ctrl @ 10 μM,[20],100 % Ctrl
same,% Ctrl @ 10 μM,[21],100 % Ctrl
same,% Ctrl @ 10 μM,[22]; RSK3(Kin.Dom.1-N-terminal),72 % Ctrl
same,% Ctrl @ 10 μM,[22]; RSK3(Kin.Dom.2-C-terminal),79 % Ctrl
same,% Ctrl @ 10 μM,[23],100 % Ctrl
same,% Ctrl @ 10 μM,[24],100 % Ctrl
same,% Ctrl @ 10 μM,[25],100 % Ctrl
same,% Ctrl @ 10 μM,[26],91 % Ctrl
same,% Ctrl @ 10 μM,[27],100 % Ctrl
same,% Ctrl @ 10 μM,[28],97 % Ctrl
same,% Ctrl @ 10 μM,[29],94 % Ctrl
same,% Ctrl @ 10 μM,[30],73 % Ctrl
same,% Ctrl @ 10 μM,[31],91 % Ctrl
same,% Ctrl @ 10 μM,[32],100 % Ctrl
